Source: patent US20040038884A1, “Treatment of tinitus” (priority 2003, published 2004)
Where no end group is shown, it is not given here.

Legend:
[1] = test system: alpha9/alpha10 heteromeric acetylcholine receptor; experiment: Block of the acetylcholine receptor of the inner ear (stated finding, no method given)
outer hair cells (OHCs) = experiment: Whole-cell patch-clamp recordings of inhibitory postsynaptic currents on outer hair cells; format: cell-based, Wistar rats; conditions: apamine 10 nM; OHCs held at −64 mV, high extracellular K+
Description: The preparation was performed in a solution containing (in mM) 144 NaCl, 5.8 KCl, 0.1 CaCl2, 2.1 MgCl2, 10 HEPES, 0.7 Na2HPO4, 5.6 glucose, pH adjusted to 7.3 with NaOH. For recordings, OHCs located between half and one turn from the apex of the cochlea were chosen. If necessary, supporting cells were removed with gentle suction from a cleaning pipette carefully avoiding mechanical disturbance of the efferent nerve terminals.
Whole-cell patch-clamp recordings were performed with an Axopatch 200B amplifier (Axon Instruments, Foster City, Calif.) at room temperature (22-25° C.). Electrodes were pulled from quartz glass, had resistances of 2-3 MΩ and were filled with intracellular solution (in mM): 135 KCl, 3.5 MgCl2, 0.1 CaCl2, 5 EGTA, 5 HEPES, 2.5 Na2ATP. The pH of the solution was adjusted to pH 7.3 with KOH. Membrane potential was corrected for the electrode junction potential (−4 mV). Whole-cell series resistance ranged from 4 to 9 MΩ and was not compensated. Currents were filtered at 1 kHz and sampled at 5 kHz.
The specimen were continuously superfused with extracellular solution (in mM: 144 NaCl, 5.8 KCl, 2 CaCl2, 0.9 MgCl2, 10 HEPES, 0.7 Na2HPO4, 5.6 glucose, pH adjusted to 7.3 with NaOH). Chemicals as well as depolarizing solutions were applied via a glass capillary (diameter approximately 80 μm) positioned close to the organ of Corti. […]

Row | Molecule | block of the acetylcholine receptor [1] | inhibition of postsynaptic currents (IPSCs) (outer hair cells (OHCs))
1 | CC12CC3CC(C)(C1)CC(N)(C3)C2 [memantine, 3.5-dimethyl-1-adamantan-amine] | blocked efficiently | –
2 | apamine (CNCKAPETALCARRCQQH; not fully specified (C-terminus, bridges); cysteine pairing not given here; UniProt P01500 28-45, looked up) | – | complete inhibition
